Like-named read-outs stand apart in the source and are kept apart here. Values belong to the compound of their own block, whether it stands above or below them. Where a SMILES comes first, the peptide text is derived from it. Bridges are numbered along the chain shown (N, C = ends). [ ]: non-standard residue; d: D form. The star is where a group is joined. X2 = O=C(O)c1cc(C(=O)*)ccc1-c1c2ccc(=O)cc-2oc2cc(O)ccc12; PEG12 = NCCOCCOCCOCCOCCOCCOCCOCCOCCOCCOCCOCCOCCC(=O)O; Lys(N3) = [N-]=[N+]=NCCCC[C@H](N)C(=O)O; NMeY = CN[C@@H](Cc1ccc(O)cc1)C(=O)O; NMeF = CN[C@@H](Cc1ccccc1)C(=O)O; Ahp(2) = CCCCC[C@H](N)C(=O)O
Molecular target: transferrin receptor (hTfR) (Homo sapiens, UniProt P02786)
Assay: Intermolecular interaction evaluation test between transferrin receptor (hTfR) and peptide by surface plasmon resonance (SPR)
Format: binding
Summary of the method: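 hTfR captured on Ni-NTA chip then amine-coupled; peptides run single-cycle kinetics at 5–100 nM in 10 mM HEPES pH 8.0, 150 mM NaCl, 0.05% Tween 20, 0.1% BSA, 1.0% DMSO. KD from least-squares curve fitting of sensorgrams.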

[1] = SPR, hTfR No. 894 variants with PEG12c linker (Table 2), read-out: KD
[2] = binding to hTfR by SPR, Table 2 peptides, read-out: KD value (SPR) class

transferrin receptor (hTfR), sequence (P02786 whole entry): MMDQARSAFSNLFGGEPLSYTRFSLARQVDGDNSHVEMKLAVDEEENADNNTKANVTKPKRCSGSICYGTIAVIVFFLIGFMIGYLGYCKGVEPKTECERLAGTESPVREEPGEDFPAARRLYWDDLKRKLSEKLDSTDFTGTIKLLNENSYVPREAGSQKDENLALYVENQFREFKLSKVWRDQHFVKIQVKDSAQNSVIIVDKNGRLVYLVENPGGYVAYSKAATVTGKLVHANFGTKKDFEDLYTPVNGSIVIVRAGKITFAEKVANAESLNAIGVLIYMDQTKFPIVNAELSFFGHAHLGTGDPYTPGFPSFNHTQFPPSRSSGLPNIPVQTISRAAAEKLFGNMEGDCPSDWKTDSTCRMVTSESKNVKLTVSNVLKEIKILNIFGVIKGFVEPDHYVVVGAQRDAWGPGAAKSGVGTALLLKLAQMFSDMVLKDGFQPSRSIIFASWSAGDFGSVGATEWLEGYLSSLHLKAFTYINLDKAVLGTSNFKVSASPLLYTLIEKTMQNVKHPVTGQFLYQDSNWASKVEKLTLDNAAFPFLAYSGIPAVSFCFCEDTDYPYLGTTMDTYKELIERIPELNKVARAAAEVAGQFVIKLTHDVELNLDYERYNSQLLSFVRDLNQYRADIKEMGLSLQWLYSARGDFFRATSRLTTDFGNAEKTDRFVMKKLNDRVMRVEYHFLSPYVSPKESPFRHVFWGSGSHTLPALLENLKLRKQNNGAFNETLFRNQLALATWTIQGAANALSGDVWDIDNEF

Compound: CC[C@H](C)[C@@H]1NC(=O)[C@H](Cc2ccc(OC)cc2)NC(=O)[C@H](Cc2ccc(O)cc2)NC(=O)[C@H](CC(N)=O)NC(=O)[C@H](Cc2c[nH]c3ccc(Cl)cc23)NC(=O)[C@H](C(C)C)NC(=O)[C@H](Cc2cccc(Cl)c2)N(C)C(=O)[C@H](C(C)C)NC(=O)[C@H](C)NC(=O)CSC[C@@H](C(N)=O)NC(=O)[C@H](Cc2ccc(O)cc2)N(C)C(=O)[C@H](Cc2ccccc2)NC(=O)[C@@H](CCCNC(=N)N)NC(=O)[C@H](CCCNC(=N)N)NC(=O)[C@H]([C@@H](C)CC)NC1=O [compound 464]
Kd (SPR, hTfR, class symbols A-D, read-out: KD): > 1000 nM

Compound: CC[C@H](C)[C@@H]1NC(=O)[C@H](Cc2ccc(OCCN)cc2)NC(=O)[C@H](Cc2ccc(O)cc2)NC(=O)[C@H](CC(N)=O)NC(=O)[C@H](Cc2c[nH]c3ccccc23)NC(=O)[C@H](C(C)C)NC(=O)[C@H](Cc2ccccc2)N(C)C(=O)[C@H](C(C)C)NC(=O)[C@H](C)NC(=O)CSC[C@@H](C(N)=O)NC(=O)[C@H](Cc2ccc(O)cc2)N(C)C(=O)[C@H](Cc2ccccc2)NC(=O)[C@H](CCCNC(=N)N)NC(=O)[C@H](CCCCN)NC(=O)[C@H]([C@@H](C)CC)NC1=O [compound 521]
Kd (SPR, hTfR, class symbols A-D, read-out: KD (column without head, continuation of the table series)): 1 to 100 nM

Compound: CC[C@H](C)[C@@H]1NC(=O)[C@H](Cc2ccc(OC)cc2)NC(=O)[C@H](Cc2ccc(O)cc2)NC(=O)[C@H](CC(N)=O)NC(=O)[C@H](Cc2c[nH]c3ccccc23)N(C)C(=O)[C@H](C(C)C)NC(=O)[C@H](Cc2cccc(Cl)c2)N(C)C(=O)[C@H](CCCCNC(=N)N)NC(=O)[C@H](C)NC(=O)CSC[C@@H](C(N)=O)NC(=O)[C@H](Cc2ccc(O)cc2)N(C)C(=O)[C@H](Cc2ccccc2)NC(=O)[C@@H](CCCNC(=N)N)NC(=O)[C@H](CCCNC(=N)N)NC(=O)[C@H]([C@@H](C)CC)NC1=O [compound 242]
Kd [2]: 1 to 100 nM

Compound: CC[C@H](C)[C@@H]1NC(=O)[C@H](Cc2ccc(O)cc2)NC(=O)[C@H](Cc2ccc(O)cc2)NC(=O)[C@H](CC(N)=O)NC(=O)[C@H](Cc2c[nH]c3ccccc23)NC(=O)[C@H](C(C)C)NC(=O)[C@H](Cc2c[nH]c3ccccc23)NC(=O)[C@H](C(C)C)NC(=O)[C@H]([C@@H](C)O)NC(=O)[C@H](CCCNC(=N)N)NC(=O)[C@H](CO)NC(=O)[C@H](CC(N)=O)NC(=O)[C@H](C)NC(=O)CSC[C@@H](C(=O)NCCOCCOCCOCCOCCOCCOCCOCCOCCOCCOCCOCCOCCC(=O)N[C@@H](CCCCNC(=O)c2ccc(-c3c4ccc(=O)cc-4oc4cc(O)ccc34)c(C(=O)O)c2)C(N)=O)NC(=O)[C@H](CCCNC(=N)N)NC(=O)[C@H]([C@@H](C)O)NC(=O)[C@H](C(C)C)NC1=O [compound 157] ({CH2CO}-ANSRTVWVWNYYIVTRC[PEG12]K(X2)-NH2; thioether N-17)
Kd (SPR, linker and payload (FITC, VivoTag) conjugates, read-out: KD): 1 to 100 nM

Compound: CC[C@H](C)[C@@H]1NC(=O)[C@H](Cc2ccc(OC)cc2)NC(=O)[C@H](Cc2ccc(O)cc2)NC(=O)[C@H](CC(N)=O)NC(=O)[C@H](Cc2c[nH]c3ccccc23)N(C)C(=O)[C@H](C(C)C)NC(=O)[C@H](Cc2cccc(Cl)c2)N(C)C(=O)[C@H](CCC(=O)O)NC(=O)[C@H](C)NC(=O)CSC[C@@H](C(=O)N[C@H](CCC(=O)O)C(=O)NCC(=O)NCC(=O)NCC(=O)N[C@@H](CO)C(=O)N[C@@H](CO)C(=O)N[C@@H](CS)C(N)=O)NC(=O)[C@H](Cc2ccc(O)cc2)N(C)C(=O)[C@H](Cc2ccccc2)NC(=O)[C@@H](CCCNC(=N)N)NC(=O)[C@H](CCCNC(=N)N)NC(=O)[C@H]([C@@H](C)CC)NC1=O [compound 235]
Kd [2]: 100 to 1000 nM

Compound: CC[C@H](C)[C@@H]1NC(=O)[C@H](Cc2ccc(O)cc2)NC(=O)[C@H](Cc2ccc(O)cc2)NC(=O)[C@H](CC(N)=O)NC(=O)[C@H](Cc2c[nH]c3ccccc23)N(C)C(=O)[C@H](C(C)C)NC(=O)[C@H](Cc2cccc(Cl)c2)N(C)C(=O)[C@@H]2CCC(=O)NCCCC[C@H](NC(=O)[C@H]([C@@H](C)CC)NC1=O)C(=O)N[C@@H](CCCNC(=N)N)C(=O)N[C@@H](Cc1ccc(O)cc1)C(=O)N(C)[C@@H](Cc1ccc(O)cc1)C(=O)N[C@H](C(N)=O)CSCC(=O)N[C@@H](C)C(=O)N2 [compound 412]
Kd (surface plasmon resonance, peptide vs hTfR, read-out: KD value for hTfR by SPR (class symbol)): 1 to 100 nM

Compound: CCCCC[C@@H]1NC(=O)[C@H](CC(N)=O)NC(=O)[C@H](Cc2c[nH]c3ccccc23)NC(=O)[C@H](C(C)C)NC(=O)[C@H](Cc2ccccc2)N(C)C(=O)[C@H](C(C)C)NC(=O)[C@H](C)NC(=O)CSC[C@@H](C(=O)NCC(=O)N[C@@H](CCCCN=[N+]=[N-])C(N)=O)NC(=O)[C@H](Cc2ccc(O)cc2)N(C)C(=O)[C@H](Cc2ccc(O)cc2)NC(=O)[C@H](CCCNC(=N)N)NC(=O)[C@H](CCCNC(=N)N)NC(=O)[C@H]([C@@H](C)CC)NC(=O)[C@H]([C@@H](C)CC)NC(=O)[C@H](Cc2ccc(O)cc2)NC1=O [compound 276] ({CH2CO}-AV[NMeF]VWN[Ahp(2)]YIIRRY[NMeY]CG[Lys(N3)]-NH2; thioether N-15)
Kd [2]: 100 to 1000 nM

Compound: CC[C@H](C)[C@@H]1NC(=O)[C@H](Cc2ccc(O)cc2)NC(=O)[C@H](Cc2ccc(O)cc2)NC(=O)[C@H](CC(N)=O)NC(=O)[C@H](Cc2c[nH]c3ccccc23)N(C)C(=O)[C@H](C(C)C)NC(=O)[C@H](Cc2ccccc2)N(C)C(=O)[C@H](C(C)C)NC(=O)[C@H](C)NC(=O)CSC[C@@H](C(N)=O)NC(=O)[C@H](Cc2ccc(O)cc2)N(C)C(=O)[C@H](Cc2ccc(O)cc2)NC(=O)[C@H](CCCNC(=N)N)NC(=O)[C@H](CCCCN)NC(=O)[C@H]([C@@H](C)CC)NC1=O [compound 300]
Kd (surface plasmon resonance, peptide vs hTfR, read-out: KD value, hTfR binding by SPR (class symbol)): 1 to 100 nM

Results, then the compound that gave them:

Kd [1]: 1 to 100 nM
Compound: CC[C@H](C)[C@@H]1NC(=O)[C@H](Cc2ccc(O)cc2)NC(=O)[C@H](Cc2ccccc2)NC(=O)[C@H](CC(N)=O)NC(=O)[C@H](Cc2c[nH]c3ccccc23)NC(=O)[C@H](C(C)C)NC(=O)[C@H](Cc2ccccc2)N(C)C(=O)[C@H](C(C)C)NC(=O)[C@H](C)NC(=O)CSC[C@@H](C(=O)NCCOCCOCCOCCOCCOCCOCCOCCOCCOCCOCCOCCOCCC(N)=O)NC(=O)[C@H](Cc2ccc(O)cc2)N(C)C(=O)[C@H](Cc2ccc(O)cc2)NC(=O)[C@H](CCCNC(=N)N)NC(=O)[C@H](CCCNC(=N)N)NC(=O)[C@H]([C@@H](C)CC)NC1=O [compound 135] ({CH2CO}-AV[NMeF]VWNFYIIRRY[NMeY]C[PEG12]-NH2; thioether N-15)

Kd [1]: 1 to 100 nM
Compound: CCCCC[C@@H]1NC(=O)[C@H](C)NC(=O)CSC[C@@H](C(=O)NCCOCCOCCOCCOCCOCCOCCOCCOCCOCCOCCOCCOCCC(N)=O)NC(=O)[C@H](Cc2ccc(O)cc2)N(C)C(=O)[C@H](Cc2ccc(O)cc2)NC(=O)[C@H](CCCNC(=N)N)NC(=O)[C@H](CCCNC(=N)N)NC(=O)[C@H]([C@@H](C)CC)NC(=O)[C@H]([C@@H](C)CC)NC(=O)[C@H](Cc2ccc(O)cc2)NC(=O)[C@H](Cc2ccc(O)cc2)NC(=O)[C@H](CC(N)=O)NC(=O)[C@H](Cc2c[nH]c3ccccc23)NC(=O)[C@H](C(C)C)NC(=O)[C@H](Cc2ccccc2)N(C)C1=O [compound 130] ({CH2CO}-A[Ahp(2)][NMeF]VWNYYIIRRY[NMeY]C[PEG12]-NH2; thioether N-15)

Kd [2]: 1 to 100 nM
Compound: CC[C@H](C)[C@@H]1NC(=O)[C@H](Cc2ccc(O)cc2)NC(=O)[C@H](Cc2ccc(O)cc2)NC(=O)[C@H](CC(N)=O)NC(=O)[C@H](Cc2c[nH]c3ccccc23)NC(=O)[C@H](C(C)C)NC(=O)[C@H](Cc2ccccc2)NC(=O)[C@H](C(C)C)NC(=O)[C@H](C)NC(=O)CSC[C@@H](C(N)=O)NC(=O)[C@H](Cc2ccc(O)cc2)N(C)C(=O)[C@H](CCCCN)NC(=O)[C@H](CCCNC(=N)N)NC(=O)[C@H](CCCNC(=N)N)NC(=O)[C@H]([C@@H](C)CC)NC1=O [compound 261]
